Data as given in patent US20250051359A1, “MACROCYCLIC 2-AMINO-BUT-3-ENAMIDES AS INHIBITORS OF MCL-1” (JANSSEN PHARMACEUTICA NV, priority 2021, published 2025).

Tests used:
[1] = molecular target: Myeloid Cell Leukemia 1 (Mcl-1) (Homo sapiens, UniProt Q07820); assay: Terbium labeled Mcl-1 HTRF binding assay, displacement of Cy5-labeled BIM BH3 peptide; conditions: 25 pM Tb-Mcl-1, 8 nM Cy5 Bim peptide, 60 min at room temperature, read-out: Tb-MCL1 Ki
Method: Terbium labeled Myeloid Cell Leukemia 1(Mcl-1) homogeneous time-resolved fluorescence (HTRF) binding assay utilizing the BIM BH3 peptide (H2N—(C/Cy5Mal) WIAQELRRIGDEFN-OH) as the binding partner for Mcl-1.
This assay evaluated inhibition of the BH3 domain: Mcl-1 interaction by measuring the displacement of Cy5-labeled BIM BH3 peptide (H2N—(C/Cy5Mal) WIAQELRRIGDEFN-OH) in the HTRF assay format.
The following assay and stock buffers were prepared for use in the assay: (a) Stock buffer: 10 mM Tris-HCl, pH=7.5+150 mM NaCl, filtered, sterilized, and stored at 4° C.; and (b) 1× assay buffer, where the following ingredients were added fresh to stock buffer: 2 mM dithiothreitol (DTT), 0.0025% Tween-20, 0.1 mg/mL bovine serum albumin (BSA). The 1×Tb-Mcl-1+Cy5 Bim peptide solution was prepared by diluting the protein stock solution using the 1× assay buffer (b) to 25 pM Tb-Mel-1 and 8 nM Cy5 Bim peptide.
Using the Acoustic ECHO, 100 nL of 100× test compound(s) were dispensed into individual wells of a white 384-well Perkin Elmer Proxiplate, for a final compound concentration of 1× and final DMSO concentration of 1%. Inhibitor control and neutral control (NC, 100 nL of 100% DMSO) were stamped into columns 23 and 24 of assay plate, respectively. Into each well of the plate was then dispensed 10 μL of the 1×Tb-Mcl-1+Cy5 Bim peptide solution. The plate was centrifuged with a cover plate at 1000 rpm for 1 minute, then incubated for 60 minutes at room temperature with plates covered.
The TR-FRET signal was read on an BMG PHERAStar FSX MicroPlate Reader at room temperature using the HTRF optic module (HTRF: excitation: 337 nm, light source: laser, emission A: 665 nm, emission B: 620 nm, integration start: 60 μs, integration time: 400 μs).
The BMG PHERAStar FSX MicroPlate Reader was used to measure fluorescence intensity at two emission wavelengths—665 nm and 620 nm—and report relative fluorescence units (RFU) for both emissions, as well as a ratio of the emissions (665 nm/620 nm)*10,000. The RFU values were normalized to percent inhibition as follows:
% inhibition(((NC−IC)−(compound−IC))(NC−IC))*100
where IC (inhibitor control, low signal)=mean signal of 1×Tb-MCl-1+Cy5 Bim peptide+inhibitor control or 100% inhibition of Mcl-1; NC (neutral control, high signal)=mean signal 1×Tb-MCl-1+Cy5 Bim peptide with DMSO only or 0% inhibition An 11-point dose response curve was generated to determine IC50 values (using GenData) based on the following equation:
where Y=% inhibition in the presence of X inhibitor concentration; Top=100% inhibition derived from the IC (mean signal of Mcl-1+inhibitor control); Bottom=0% inhibition derived from the NC (mean signal of Mcl-1+DMSO); Hillslope=Hill coefficient; and IC50=concentration of compound with 50% inhibition in relation to top/neutral control (NC).
Representative compounds of the present invention were tested according to the procedure as described above, with results as listed in the Table below (n.d. means not determined).

[2] = system: MOLP-8 human multiple myeloma cell line; assay: Caspase-Glo 3/7 apoptosis induction assay in MOLP-8 cells; type: cell-based; conditions: caspase-3/7 activity, 2 hours at 37° C., averaged over all runs on all batches, read-out: MOLP8 AC50
Description: MCL-1 is a regulator of apoptosis and is highly over-expressed in tumor cells that escape cell death. The assay evaluates the cellular potency of small-molecule compounds targeting regulators of the apoptosis pathway, primarily MCL-1, Bfl-1, Bcl-2, and other proteins of the Bcl-2 family. Protein-protein inhibitors disrupting the interaction of anti-apoptotic regulators with BH3-domain proteins initiate apoptosis.
The Caspase-Glo® 3/7 Assay is a luminescent assay that measures caspase-3 and −7 activities in purified enzyme preparations or cultures of adherent or suspension cells. The assay provides a proluminescent caspase-3/7 substrate, which contains the tetrapeptide sequence DEVD. This substrate is cleaved to release aminoluciferin, a substrate of luciferase used in the production of light. Addition of the single Caspase-Glo® 3/7 Reagent in an “add-mix-measure” format results in cell lysis, followed by caspase cleavage of the substrate and generation of a “glow-type” luminescent signal.
This assay uses the MOLP-8 human multiple myeloma cell line, which is sensitive to MCL-1 inhibition.
Cell cultures were maintained between 0.2 and 2.0×10^6 cells/mL. The cells were harvested by collection in 50 mL conical tubes. The cells were then pelleted at 500 g for 5 mins before removing supernatant and resuspension in fresh pre-warmed culture medium. The cells were counted and diluted as needed.
The assay reagent was prepared by transferring the buffer solution to the substrate vial and mixing. The solution may be stored for up to 1 week at 4° C. with negligible loss of signal.
Compounds were delivered in assay-ready plates (Proxiplate) and stored at −20° C.
Assays always include 1 reference compound plate containing reference compounds. The plates were spotted with 40 nL of compounds (0.5% DMSO final in cells; serial dilution; 30 μM highest conc. 1/3 dilution, 10 doses, duplicates). The compounds were used at room temperature and 4 μL of pre-warmed media was added to all wells except column 2 and 23. The negative control was prepared by adding 1% DMSO in media. The positive control was prepared by adding the appropriate positive control compound in final concentration of 60 μM in media. The plate was prepared by adding 4 μL negative control to column 23, 4 μL positive control to column 2 and 4 μL cell suspension to all wells in the plate. The plate with cells was then incubated at 37° C. for 2 hours. The assay signal reagent is the Caspase-Glo solution described above, and 8 μL was added to all wells. The plates were then sealed and measured after 30 minutes.
The activity of a test compound was calculated as percent change in apoptosis induction as follows: • LC=median of the Low Control values • =Central Reference in Screener • =DMSO • =[…] • HC=Median of the High Control values • =Scale Reference in Screener • =30 μM of positive control • =100% apoptosis induction
% Effect (AC50)=100−((sample−LC)/(HC−LC))*100
% Control=(sample/HC)*100
% Control min=((sample−LC)/(HC−LC))*100

Myeloid Cell Leukemia 1 (Mcl-1), sequence (Q07820 whole entry): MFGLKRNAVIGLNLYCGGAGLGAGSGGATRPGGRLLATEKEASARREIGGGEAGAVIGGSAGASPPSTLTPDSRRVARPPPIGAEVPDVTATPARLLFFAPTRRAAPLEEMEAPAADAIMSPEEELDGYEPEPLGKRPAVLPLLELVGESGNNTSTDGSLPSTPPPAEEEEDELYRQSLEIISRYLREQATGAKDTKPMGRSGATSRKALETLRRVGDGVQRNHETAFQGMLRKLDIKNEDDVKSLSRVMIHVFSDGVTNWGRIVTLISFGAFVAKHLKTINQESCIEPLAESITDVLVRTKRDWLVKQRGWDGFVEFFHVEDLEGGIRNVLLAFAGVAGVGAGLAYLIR

SMILES | Ki [1] [nM] | AC50 [2] [nM]
COCCN(CCOC)C(=O)[C@H]1/C=C/C[C@H](C)[C@@H](C)S(=O)(=O)NC(=O)c2ccc3c(c2)N(C[C@@H]2CCCN21)C[C@@]1(CCCc2cc(Cl)ccc21)CO3 [Compound 1] | 0.03 | 56
C[C@@H]1[C@@H](C)C/C=C/[C@H](C(=O)N(C)CCC2CCOCC2)N2CCC[C@H]2CN2C[C@@]3(CCCc4cc(Cl)ccc43)COc3ccc(cc32)C(=O)NS1(=O)=O [Compound 2] | 0.058 | 130
C[C@@H]1[C@@H](C)C/C=C/[C@H](C(=O)N(C)CC2CCOCC2)N2CCC[C@H]2CN2C[C@@]3(CCCc4cc(Cl)ccc43)COc3ccc(cc32)C(=O)NS1(=O)=O [Compound 3] | 0.027 | 81
C[C@@H]1[C@@H](C)C/C=C/[C@H](C(=O)N(C)C)N2CCC[C@H]2CN2C[C@@]3(CCCc4cc(Cl)ccc43)COc3ccc(cc32)C(=O)NS1(=O)=O [Compound 4] | 0.142 | 180
CC1CC=CC(C(=O)N(C)CCN2CCOCC2)N2CCCC2CN2CC3(CCCc4cc(Cl)ccc43)COc3ccc(cc32)C(=O)NS(=O)(=O)C1C (centres unmarked) [Compound 5] | 0.024 | 180
C[C@@H]1[C@@H](C)C/C=C/[C@@H](C(=O)N2CCOCC2)N2CCC[C@H]2CN2C[C@@]3(CCCc4cc(Cl)ccc43)COc3ccc(cc32)C(=O)NS1(=O)=O [Compound 6] | – | 1950
C[C@@H]1[C@@H](C)C/C=C/[C@H](C(=O)N2CCOCC2)N2CCC[C@H]2CN2C[C@@]3(CCCc4cc(Cl)ccc43)COc3ccc(cc32)C(=O)NS1(=O)=O [Compound 7] | 0.089 | 360
C[C@@H]1[C@@H](C)C/C=C/[C@H](C(=O)N2CCOCC2)N2CC[C@H]2CN2C[C@@]3(CCCc4cc(Cl)ccc43)COc3ccc(cc32)C(=O)NS1(=O)=O [Compound 8] | 0.705 | 340
C[C@@H]1[C@@H](C)C/C=C/[C@@H](C(=O)N2CCOCC2)N2CC[C@H]2CN2C[C@@]3(CCCc4cc(Cl)ccc43)COc3ccc(cc32)C(=O)NS1(=O)=O [Compound 9] | 0.196 | 660
